Assays:
Type in all cases: cell-based, mouse
SSEA1 = experiment: Immunofluorescence staining, SSEA1 in ES cells; settings: for SSEA1 expression level: ES cells, 72 hours, control group = 100%
Excerpt: (§1) Nanog and SSEA1 are also marker proteins of stem cells, and their expression levels could be measured by immunofluorescence staining to further confirm whether BP can effectively maintain the self-renewal and pluripotency of stem cells.
(§2) An experimental group medium (BP5, BP10, BP20 or BP40), a LIF-containing medium (without BP), and a control group medium (without BP) were used respectively in a 6-well culture dish which comprises a slide in each well to culture ES cells with an initial density of 1×10^4 per well for 72 hours. The medium was removed and the cells were washed with PBS. Next, PBS was removed, and then 4% paraformaldehyde was added to perform the fixation at room temperature for 10 minutes. Next, paraformaldehyde was removed, and then slides were washed with 0.1% Tween-20/1X PBS three times for 10 minutes each time. The 0.3% Tween-20/1X PBS was added and held at room temperature for 30 minutes to penetrate the cell membrane to benefit the dye entry. After the slides were washed three times with 0.1% Tween-20, 5% FBS/1×PBS was added to perform a blocking reaction at room temperature for 2 hours, and then reacting with the primary antibody [anti-Nanog (Novus) or anti-SSEA1 (Millipore)] at a dilution of 1:100 at room temperature overnight. Slides were then washed 5 times with 0.1% Tween-20, then reacting with the secondary antibody [FITC-conjugated anti-mouse IgG or TRITC-conjugated anti-rabbit IgG (Sigma-Aldrich)] at a dilution of 1:500. After washed with 0.1% Tween-20 for 10 minutes, slides were mounted with the DAPI-containing UltraCruz™ Mounting medium and observed using an inverted fluorescent microscope.

Nanog = experiment: Immunofluorescence staining, Nanog in iPS cells; settings: 72 hours, control group = 100%
Excerpt: as §1, §2
By using the above culture conditions, an experimental group medium (BP5, BP10, BP20 or BP40), a LIF-containing medium (without BP), and a control group medium (without BP) were used respectively to culture iPS cells. The staining of iPS cells was performed by using the steps described above.

Stat3 = experiment: Western blot assay, Stat3 protein in ES cells; settings: for Stat3 Protein expression level: ES cells, control group = 100%
Excerpt: According to the known research at present, Jak2 and Stat3 proteins could be phosphorylated to form the active forms, and the Jak2-Stat3 signaling pathway will be activated when Jak2 and Stat3 were phosphorylated.
An experimental group medium (BP5 or BP10), a LIF-containing medium (without BP), and a control group medium (without BP) were used respectively to culture ES cells with an initial density of 1×10^4 per well in a 6-well culture dish. The medium was removed until the cells growth to be about 70 to 80% confluence. The proteins were extracted to conduct the Western blot assay by using rabbit anti-Jak2 antibody (Cell Signaling Technology), mouse anti-phospho-Jak2 antibody (Cell Signaling Technology), rabbit anti-Stat3 antibody (BD) and rabbit anti-phospho-Stat3 antibody (Cell Signaling Technology), to determine whether BP would affect the protein expression levels of the genes in the Jak-Stat3 signaling pathway.

OSM = experiment: Real-time PCR, cytokine gene OSM in ES cells; settings: for Osm mRNA expression level: ES cells, control group = 100%
Experimental: An experimental group medium (BP5, BP10, BP20 or BP40) and a control group medium (without BP) were added respectively to perform the following steps. ES cells were cultured with an initial density of 1×10^4 per well in a 6-well culture dish. The medium was removed until the cells growth to be about 70 to 80% confluence, and then 1 ml TRIzol (Invitrogen) was added into each well. The cells were incubated for 5 minutes, and then was scraped by a spatula and placed into a 1.5 ml microtube to be lysed adequately. Chloroform (0.2 ml) was added into the microtubes. The mixture was shaken up and down for 15 seconds, and then incubated at room temperature for 2 to 3 minutes. Thereafter, the mixture was centrifuged at 12000 rpm at 4° C. for 15 minutes, and the supernatant was removed into another 1.5 ml microtube and isopropanol (0.5 ml) was added into the microtube with well mixing. The mixture was incubated at room temperature for 10 minutes and then centrifuged at 12000 rpm at 4° C. for 10 minutes. The supernatant was then removed. One ml of 70% ethanol containing DEPC.H2O was used to wash the remaining sediment. The sediment was centrifuged at 7500 rpm at 4° C. for 5 minutes. The supernatant was removed. The sediment was dried by vacuum suction. The dried samples were dissolved in about 0.01 to 0.02 ml of DEPC.H2O to obtain the experimental group RNA and control group RNA. Both groups were stored at −80° C.
The OD value of RNA samples in both groups obtained from the above Experiment I were measured at a wavelength of 260 nm (RNA: OD260=1 for a 40 μg/mL solution). Each RNA sample (2 μl) was added with RNA-free water until the volume of the sample reached 10 μl. Two μl oligo (dT) (100 μg/ml) was added into each sample, and the samples were incubated at 65° C. for 5 minutes. Then, the samples were immediately placed on ice and spun down. Next, 6.5 μl of a reaction solution [4 μl of 5× buffer+1 μl of 0.1 M DTT+1 μl of RNase out+0.5 μl of SSIII (Invitrogen)] was added into each of the samples, and the samples were incubated at 50° C. for about 30 to 60 minutes and at 75° C. for 15 minutes to obtain the experimental group cDNA and control group cDNA. Both groups were stored at −80° C.
This experiment was used to detect the expression levels of ES cell-related genes, i.e., Oct4 and Sox2, etc. First, 4 μl of the experimental group cDNA or control group cDNA was added into each well of a 96-well micro-reaction plate, and mixed with 6 μl of a reaction solution [0.5 μl of 6 μM forward primer+0.5 μl of 6 μM reverse primer+5 μl of SYBR Green PCR Master mix (Roche)], wherein the SYBR Green PCR Master mix included the reagents needed for Q-PCR, such as dNTPs, MgCl, Taq DNA polymerase and 2×SYBR® Green I solution. […] The cycle threshold (CT) values were measured. […]

[1] = BP10 medium (about 10 μg BP/ml)
[2] = BP20 medium (about 20 μg BP/ml)
[3] = BP40 medium (about 40 μg BP/ml)
[4] = LIF-containing medium (LIF 4 ng/ml, without BP)

Compound | SSEA1 expression level (SSEA1; BP5 medium (about 5 μg BP/ml)) | SSEA1 expression level (SSEA1; [1]) | SSEA1 expression level (SSEA1; [2]) | SSEA1 expression level (SSEA1; [3]) | expression level of SSEA1 (SSEA1; BP-containing ES cell medium vs control group (without BP), result in words) | Nanog expression level (Nanog; BP5 medium (about 5 μg BP/ml)) | Nanog expression level (Nanog; [1]) | Nanog expression level (Nanog; [2]) | Nanog expression level (Nanog; [3]) | Stat3 Protein expression level (Stat3; BP5 medium (about 5 μg BP/ml)) | Stat3 Protein expression level (Stat3; [1]) | total protein expression and phosphorylated protein expression level of Stat3 (Stat3; ES cell medium containing BP, result in words) | Osm mRNA expression level (OSM; BP5 medium (about 5 μg BP/ml)) | Osm mRNA expression level (OSM; [1]) | mRNA expression level of OSM (OSM; BP-containing ES cell medium, result in words) | SSEA1 expression level (SSEA1; [4]) | Nanog expression level (Nanog; [4]) | Stat3 Protein expression level (Stat3; [4]) | Osm mRNA expression level (OSM; LIF-containing medium (LIF 4 ng/ml))
CCCC=C1OC(=O)c2ccccc21 [BP, n-butylidenephthalide] | 76.27% | 202.82% | 172.12% | 145.71% | higher | 142% | 305% | 358% | 442% | 139% | 165% | increased significantly | 109% | 246% | significantly up-regulated |  |  |  | 
LIF: multifunctional cell factor used to maintain pluripotency of stem cells; LIF-containing medium (4 ng/ml, without BP) as comparison |  |  |  |  |  |  |  |  |  |  |  |  |  |  |  | 242.01% | 386% | 140% | 128%
